Laboratory results from patent US8753841B2, “Enzyme that catalyzes a peptide-forming reaction from a carboxy component and an amine component, microbe producing the same, and a method of producing a dipeptide using the enzyme or microbe” (Ajinomoto Co., Inc., priority 2002, dated 2014).

What was measured:
[1] = system: peptide-forming enzyme from Empedobacter brevis strain FERM BP-8113; experiment: Substrate specificity of enzyme (peptide production from carboxy and amine components); format: biochemical; set-up: key to Formed peptide (mM): +: those peptides for which production was confirmed but which were unable to be quantified due to the absence of a standard; a trace amount; details: pH 9.0, 25° C.; for Formed peptide / Formed peptide (mM): L-amino acid methyl ester hydrochloride 100 mM, 3 hours
Description: Ester specificity was examined in the case of using L-amino acid ester for the carboxy component. […] HCl represents hydrochloride in Table 4.
Peptide production was examined in the case of using L-alanine methyl ester for the carboxy component and using various L-amino acids for the amine component.
Peptide production was examined in the case of using various types of L-amino acid methyl esters for the carboxy component and using L-glutamine for the amine component. […] Furthermore, Tween-80 was added to the reaction system to a final concentration of 0.1% in the case of using L-Trp-OMe and L-Tyr-OMe.

[2] = system: peptide-forming enzyme from Empedobacter brevis strain FERM BP-8113; experiment: as above; format: biochemical; details: pH 9.0, 25° C., 3 hours; for Produced peptide: carboxy component 100 mM, peptide amine component 150 mM
[3] = system: enzyme derived from Sphingobacterium sp. strain FERM BP-8124; experiment: Substrate specificity of enzyme derived from Sphingobacterium sp.; format: biochemical; set-up: key to Produced peptide (mM): +: those peptides for which production was confirmed but which were unable to be quantified due to the absence of a standard; a trace amount; details: carboxy component 100 mM, 0.33 units enzyme, pH 9.0, 25° C., 1.5 hours
[4] = system: Empedobacter brevis strain FERM BP-8113 microbial cells; experiment: Production of peptide using microbial cells of Empedobacter brevis; format: cell-based; details: 1 mL 100 g/L cell suspension + 1 mL buffer with 200 mM carboxy component, 400 mM amino acid, 10 mM EDTA, pH 9.0, 18° C., 2 hours
Procedure: A 50 mL medium (pH 6.2) containing 5 grams (g) of glucose, 5 g of ammonium sulfate, 1 g of monopotassium phosphate, 3 g of dipotassium phosphate, 0.5 g of magnesium sulfate, 10 g of yeast extract and 10 g of peptone in 1 liter (L) was transferred to a 500 mL Sakaguchi flask and sterilized at 115° C. for 15 minutes.
Microbial cells were collected by centrifuging (10,000 rounds per minute (rpm), 15 minutes) the culture broth obtained in Example 1, followed by suspending them to a concentration of 100 g/L in 100 mM borate buffer (pH 9.0) containing 10 mM EDTA. After respectively adding 1 mL of the suspension to 1 mL each of 100 mM borate buffer solutions (pH 9.0) containing 10 mM EDTA, 200 mM of the following carboxy components, and 400 mM of the following amino acids to make a final volume of 2 mL, the reaction was carried out at 18° C. for 2 hours.

[5] = oligopeptide production, amine component 150 mM
[6] = Table 15-3, amine component 150 mM
[7] = L-amino acid amide hydrochloride 100 mM as carboxy component, L-amino acid 150 mM
[8] = Table 15-4, amine component 150 mM
[9] = L or D amino acid methyl ester hydrochloride 100 mM, L or D amino acid 150 mM
[10] = Table 15-1, amine component 150 mM
[11] = L-alanine methyl ester hydrochloride 100 mM, L-amino acid amide hydrochloride 150 mM

Gly-L-CySH
Formed peptide ([1]; L-amino acid 150 mM): 45.6 mM

L-Ala-L-Ala-L-Ala-L-Ala
Produced peptide [2]: 44.5 mM
Produced peptide [3, 5]: 30.1 mM

L-Thr-L-Val
Formed peptide ([1]; L-amino acid 150 mM): 0.7 mM
Produced peptide [3, 6]: 1.3 mM

L-Lys-L-Gln
Formed peptide (mM) ([1]; 150 mM L-glutamine): +

L-His-L-Gln
Formed peptide (mM) ([1]; 150 mM L-glutamine): +

L-Thr-L-Gln
Formed peptide [2, 7]: 0.3 mM
Formed peptide ([1]; 150 mM L-glutamine): 81.9 mM
Produced peptide ([3]; Table 15-2, L-Gln 150 mM): 36.1 mM

L-Arg-L-Phe
Formed peptide ([1]; L-amino acid 150 mM): 1.9 mM
Produced peptide (mM) [3, 6]: tr

L-Ala-L-Phe-Gly
Produced peptide [2]: 43.7 mM
Produced peptide [3, 5]: 34.0 mM

CNC(=O)CN [Gly-methylamine]
Formed peptide ([2]; amino acid methyl ester hydrochloride 100 mM, methylamine 150 mM): 1.1 mM
Produced peptide [3, 8]: 1.0 mM

L-Thr-Gly-Gly
Produced peptide [2]: 83.0 mM
Produced peptide [3, 5]: 8.4 mM

L-His-L-Met
Formed peptide ([1]; L-amino acid 150 mM): 6.5 mM

L-Ala-D-Ser
Formed peptide [2, 9]: 5.4 mM
Produced peptide [3, 10]: 3.3 mM

L-CySH-L-Gln
Formed peptide (mM) ([1]; 150 mM L-glutamine): +

L-Arg-L-Ser
Formed peptide ([1]; L-amino acid 150 mM): 3.6 mM
Produced peptide [3, 6]: 2.2 mM

α-L-Asp-L-Gln
Formed peptide (mM) ([1]; 150 mM L-glutamine): tr
Produced peptide ([3]; Table 15-2, L-Gln 150 mM): 0.05 mM

L-Ile-L-Ser
Formed peptide ([1]; L-amino acid 150 mM): 17.2 mM
Produced peptide [3, 6]: 17.3 mM

L-Ser-L-Gln
Formed peptide ([1]; 150 mM L-glutamine): 24.0 mM
Produced peptide ([3]; Table 15-2, L-Gln 150 mM): 12.9 mM

L-Ala-Gly-NH2
Formed peptide [2, 11]: 7.4 mM
Produced peptide [3, 8]: 15.1 mM

L-Pro-L-Gln
Formed peptide ([1]; 150 mM L-glutamine): 2.2 mM
Produced peptide ([3]; Table 15-2, L-Gln 150 mM): 1.8 mM

L-Ala-Gly-Gly
Produced peptide [2]: 41.7 mM
Produced peptide [3, 5]: 33.7 mM

L-Phe-L-Gln
Formed peptide [2, 7]: 0.2 mM
Formed peptide ([1]; 150 mM L-glutamine): 0.9 mM
Produced peptide ([3]; Table 15-2, L-Gln 150 mM): 0.8 mM

L-Ala-L-Ala-L-Ala
Produced peptide [2]: 57.5 mM
Produced peptide [3, 5]: 41.1 mM

L-Gln-L-Gln
Formed peptide ([1]; 150 mM L-glutamine): 0.3 mM
Produced peptide ([3]; Table 15-2, L-Gln 150 mM): 0.1 mM

COC(=O)[C@H](C)N.Cl [L-Alanine methyl ester•HCl, L-alanine methyl ester hydrochloride]
L-Ala-L-Gln formed ([1]; carboxy component 100 mM, 200 mM L-glutamine, 2 hours): 84.3 mM

D-Ala-L-Ser
Formed peptide [2, 9]: 20.3 mM
Produced peptide [3, 10]: 24.1 mM

L-Ala-L-Ala-NH2
Formed peptide [2, 11]: 8.3 mM
Produced peptide [3, 8]: 9.2 mM

L-Ser-L-Ser
Formed peptide [4]: 29.0 mM
Formed peptide ([1]; L-amino acid 150 mM): 38.0 mM
Produced peptide [3, 6]: 9.9 mM

Gly-L-Arg
Formed peptide ([1]; L-amino acid 150 mM): 25.5 mM
Produced peptide [3, 6]: 17.9 mM

L-Ile-L-Met
Formed peptide [4]: 8.3 mM
Formed peptide ([1]; L-amino acid 150 mM): 10.0 mM
Produced peptide [3, 6]: 5.1 mM

Gly-L-Ser
Formed peptide ([1]; L-amino acid 150 mM): 44.2 mM
Produced peptide [3, 6]: 53.8 mM

L-Leu-L-Gln
Formed peptide (mM) ([1]; 150 mM L-glutamine): +

L-Arg-L-Met
Formed peptide ([1]; L-amino acid 150 mM): 0.7 mM
Produced peptide (mM) [3, 6]: tr

L-Leu-L-Met
Formed peptide ([1]; L-amino acid 150 mM): 12.2 mM

L-Ala-L-Ala
Produced peptide [2]: 28.7 mM
Produced peptide [3, 10]: 13.1 mM
Produced peptide [3, 5]: 25.6 mM

L-Trp-L-Gln
Formed peptide (mM) ([1]; 150 mM L-glutamine): +

L-Asn-L-Glu
Formed peptide ([1]; L-amino acid 150 mM): 10.2 mM

L-Thr-L-Ala
Formed peptide ([1]; L-amino acid 150 mM): 9.4 mM
Produced peptide [3, 6]: 5.8 mM

L-Ala-L-His
Formed peptide [4]: 52.1 mM
Formed peptide [2, 7]: 3.9 mM
Produced peptide [3, 10]: 73.6 mM
Produced peptide (mM) [3, 8]: tr

L-Trp-L-Met
Formed peptide ([1]; L-amino acid 150 mM): 4.1 mM
